Assay results taken from patent US20130281313A1, “PROGNOSTIC AND/OR PREDICTIVE BIOMARKERS AND BIOLOGICAL APPLICATIONS THEREOF” (INSTITUT GUSTAVE ROUSSY, priority 2010, published 2013).

How the values were obtained:
A549 cells [1] = assay: Cell cycle distribution (PI staining, cytofluorometry); type: cell-based, human; details: 10 μM CDDP alone or with PN and/or NAC
Description: To measure apoptosis-related parameters, living cells were labeled for 30 min at +37° C. with 40 nM 3,3′dihexyloxalocarbocyanine iodide (DiOC6(3), from Molecular Probes-Invitrogen, Eugene, USA), which quantifies the mitochondrial transmembrane potential (Δψm), plus 1 μg/mL propidium iodide (PI), which only accumulates in cells with ruptured plasma membrane {Galluzzi, 2009; Galluzzi, 2008; Galluzzi, 2007}. To assess cell cycle distribution, cells were collected, fixed by gentle vortexing in ice-cold 80% (v/v) ethanol (Carlo Erba Reagents, Milano, Italy) and stained with 50 μg/mL PI in 0.1% (w/v) D-glucose in PBS supplemented with 1 μg/mL (w/v) RNAse A {Mondragon, 2009; Mouhamad, 2007}. All cytofluorometric determinations were carried out a FACSCalibur or a FACScan cytofluorometer (BD Biosciences, San Jose, USA) equipped with a 70 μm nozzle.
First line statistical analysis of cytofluorometric results was performed by using the CellQuest™ software (BD Biosciences), by gating on the events characterized by normal forward scatter and side scatter parameters. Apoptosis- and cell cycle-related data were further analyzed with Microsoft Excel (Microsoft Co., Redmond, USA) and statistical significance was assessed by means of two-tailed Student's t test (p<0.05).

A549 cells [2] = assay: Transcriptome studies (mRNA microarrays); type: cell-based, human
Description: NSCLC A549 cells were treated with 100 μM CDDP, 75 μM C2-CER or 100 μM CdCl2 for 12 h, or with 50 μM CDDP, C2-CER or CdCl2 for 24 h. Thereafter, cells were collected and lysed for RNA extraction of following established procedures {de La Motte Rouge, 2007}. mRNA expression changes were quantified on G4112A 44 k Whole Human Genome Oligo Microarrays (Agilent Technologies, Santa Clara, USA), as previously reported {Castedo, 2006}. mRNA microarrays underwent standardized post-hybridization processing, image acquisition and analysis (see below) {Castedo, 2006}.
Data from microarray experiments were analyzed with the Rosetta Resolver® System (Rosetta Biosoftware, Seattle, USA). The threshold for statistical significance of probe signals (Intensity) was set at p=10^−5. […] For each mRNA, fold change (FC) was then defined as Intensitysample/Intensitycontrol when Intensitysample>Intensitycontrol, or as—(Intensitycontrol/Intensitysample) when Intensitysample<Intensitycontrol. Ratios were calculated as Intensitysample/Intensitycontrol.

[3] = 12 h, 100 μM CDDP, 75 μM C2-CER or 100 μM CdCl2, vs untreated cells
[4] = 24 h, 50 μM CDDP, C2-CER or CdCl2, vs untreated cells

Cc1ncc(CO)c(CO)c1O [PN, pyridoxine]
cell cycle arrest induced by CDDP (A549 cells [1]): not affected by the presence of PN

N.N.[Cl][Pt][Cl] [CDDP, cis-diammineplatinum(II) dichloride]
Fold change, ADAR (NM_001111) transcript (A549 cells [2]; [3]): n.s. | Fold change, ALDH7AT (NM_001182) transcript (A549 cells [2]; [3]): n.s. | Fold change, CD151 (NM_004357) transcript (A549 cells [2]; [3]): n.s. | Fold change, CLIC1 (NM_001288) transcript (A549 cells [2]; [3]): n.s. | Fold change, COMMO9 (NM_014186) transcript (A549 cells [2]; [3]): n.s. | Fold change, COX5B (NM_001802) transcript (A549 cells [2]; [3]): n.s. | Fold change, COX7C (NM_001867) transcript (A549 cells [2]; [3]): n.s. | Fold change, DHRSX (NM_145177) transcript (A549 cells [2]; [3]): −1.94 | Fold change, EBP (NM_006579) transcript (A549 cells [2]; [3]): n.s. | Fold change, EEF2 (NM_001901) transcript (A549 cells [2]; [3]): 1.36 | Fold change, FDXK (NM_003681) transcript (A549 cells [2]; [3]): −1.77 | Fold change, FN3KRP (NM_024619) transcript (A549 cells [2]; [3]): 1.33 | Fold change, HDLBP (NM_005336) transcript (A549 cells [2]; [3]): n.s. | Fold change, HGD (NM_000187) transcript (A549 cells [2]; [3]): −1.68 | Fold change, IL6R (NM_000565) transcript (A549 cells [2]; [3]): n.s. | Fold change, KHSRP (NM_003685) transcript (A549 cells [2]; [3]): n.s. | Fold change, LOC389727 (NM_372092) transcript (A549 cells [2]; [3]): n.s. | Fold change, MAT2A (NM_005911) transcript (A549 cells [2]; [3]): −1.97 | Fold change, MOL1 (NM_021960) transcript (A549 cells [2]; [3]): 2.48 | Fold change, MPP6 (NM_016447) transcript (A549 cells [2]; [3]): n.s. | Fold change, OSTCL (NM_145303) transcript (A549 cells [2]; [3]): n.s. | Fold change, P5MC5 (NM_002805) transcript (A549 cells [2]; [3]): n.s. | Fold change, PLK1S1 (NM_018474) transcript (A549 cells [2]; [3]): n.s. | Fold change, PPM1J (NM_005167) transcript (A549 cells [2]; [3]): 1.63 | Fold change, RNF26 (NM_032015) transcript (A549 cells [2]; [3]): n.s. | Fold change, RRAD (NM_004185) transcript (A549 cells [2]; [3]): 6.59 | Fold change, SEMA3G (NM_000379) transcript (A549 cells [2]; [3]): −1.58 | Fold change, SLC22A16AS (NM_007105) transcript (A549 cells [2]; [3]): −1.36 | Fold change, SOCS6 (NM_004232) transcript (A549 cells [2]; [3]): −1.28 | Fold change, TMED1 (NM_006858) transcript (A549 cells [2]; [3]): 1.35 | Fold change, TRIP4 (NM_016213) transcript (A549 cells [2]; [3]): −1.64 | Fold change, UBE2L3 (NM_003347) transcript (A549 cells [2]; [3]): −1.76 | Fold change, UBE21 (NM_014176) transcript (A549 cells [2]; [3]): n.s. | Fold change, W282 (NM_018029) transcript (A549 cells [2]; [3]): n.s. | Fold change, ADAR (NM_001111) transcript (A549 cells [2]; [4]): n.s. | Fold change, ALDH7AT (NM_001182) transcript (A549 cells [2]; [4]): 1.62 | Fold change, CD151 (NM_004357) transcript (A549 cells [2]; [4]): −2.13 | Fold change, CLIC1 (NM_001288) transcript (A549 cells [2]; [4]): n.s. | Fold change, COMMO9 (NM_014186) transcript (A549 cells [2]; [4]): n.s. | Fold change, COX5B (NM_001802) transcript (A549 cells [2]; [4]): n.s. | Fold change, COX7C (NM_001867) transcript (A549 cells [2]; [4]): n.s. | Fold change, DHRSX (NM_145177) transcript (A549 cells [2]; [4]): −5.40 | Fold change, EBP (NM_006579) transcript (A549 cells [2]; [4]): n.s. | Fold change, EEF2 (NM_001901) transcript (A549 cells [2]; [4]): −1.31 | Fold change, FDXK (NM_003681) transcript (A549 cells [2]; [4]): −1.44 | Fold change, FN3KRP (NM_024619) transcript (A549 cells [2]; [4]): 1.25 | Fold change, HDLBP (NM_005336) transcript (A549 cells [2]; [4]): n.s. | Fold change, HGD (NM_000187) transcript (A549 cells [2]; [4]): −1.50 | Fold change, IL6R (NM_000565) transcript (A549 cells [2]; [4]): n.s. | Fold change, KHSRP (NM_003685) transcript (A549 cells [2]; [4]): −2.00 | Fold change, LOC389727 (NM_372092) transcript (A549 cells [2]; [4]): n.s. | Fold change, MAT2A (NM_005911) transcript (A549 cells [2]; [4]): n.s. | Fold change, MOL1 (NM_021960) transcript (A549 cells [2]; [4]): n.s. | Fold change, MPP6 (NM_016447) transcript (A549 cells [2]; [4]): n.s. | Fold change, OSTCL (NM_145303) transcript (A549 cells [2]; [4]): n.s. | Fold change, P5MC5 (NM_002805) transcript (A549 cells [2]; [4]): n.s. | Fold change, PLK1S1 (NM_018474) transcript (A549 cells [2]; [4]): n.s. | Fold change, PPM1J (NM_005167) transcript (A549 cells [2]; [4]): n.s. | Fold change, RNF26 (NM_032015) transcript (A549 cells [2]; [4]): n.s. | Fold change, RRAD (NM_004185) transcript (A549 cells [2]; [4]): 3.75 | Fold change, SEMA3G (NM_000379) transcript (A549 cells [2]; [4]): n.s. | Fold change, SLC22A16AS (NM_007105) transcript (A549 cells [2]; [4]): −1.34 | Fold change, SOCS6 (NM_004232) transcript (A549 cells [2]; [4]): n.s. | Fold change, TMED1 (NM_006858) transcript (A549 cells [2]; [4]): n.s. | Fold change, TRIP4 (NM_016213) transcript (A549 cells [2]; [4]): n.s. | Fold change, UBE2L3 (NM_003347) transcript (A549 cells [2]; [4]): n.s. | Fold change, UBE21 (NM_014176) transcript (A549 cells [2]; [4]): n.s. | Fold change, W282 (NM_018029) transcript (A549 cells [2]; [4]): 1.30
